Test results from US12077503B2, “Substituted cyclic amides and their use as herbicides” (FMC CORPORATION, priority 2015, dated 2024).

Legend:
Type in all cases: in vivo
[1] = system: pigweed (Amaranthus retroflexus); experiment: Test D preemergence; settings: scale 0 to 100
Procedure, shortened: (§1)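 Visual rating, 0 = no effect, 100 = complete control, versus controls ~21 d after treatment. Preemergence application to seeds planted in silt loam; compound in non-phytotoxic solvent mix with surfactant; controlled growth environment.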

[2] = system: barley, spring (spring barley, Hordeum vulgare); experiment: Test D preemergence; settings: scale 0 to 100
Procedure, shortened: as §1

[3] = system: wheat, winter (winter wheat, Triticum aestivum); experiment: Test D preemergence; settings: scale 0 to 100
Procedure, shortened: as §1

[4] = system: field poppy (Papaver rhoeas); experiment: Test D preemergence; settings: scale 0 to 100
Procedure, shortened: as §1

[5] = system: oilseed rape (Brassica napus); experiment: Test D preemergence; settings: scale 0 to 100
Procedure, shortened: as §1

[6] = system: horseweed (Conyza canadensis); experiment: Test E preemergence; settings: scale 0 to 100
Procedure, shortened: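 Preemergence to seeds in silt loam, or postemergence to 1- to 4-leaf plants in peat-based potting mix; compound formulated in non-phytotoxic solvent plus surfactant. Greenhouse, 14–21 d. Visual injury vs. controls, 0 = no effect, 100 = complete control.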

[7] = system: chickweed (common chickweed, Stellaria media); experiment: Test C postemergence; settings: scale 0 to 100, 0 no effect, 100 complete control
Procedure, shortened: (§2)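 Seeds in loam-sand soil treated preemergence, or plants in peat-based medium sprayed postemergence at 2–18 cm (1- to 4-leaf stage), with compound in a non-phytotoxic solvent mixture containing surfactant. Greenhouse-held 13–15 d, then visually rated against controls on a 0–100 scale (0 = no effect, 100 = complete control); dash = not tested.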

[8] = system: morningglory (Ipomoea coccinea); experiment: Test C postemergence; settings: scale 0 to 100, 0 no effect, 100 complete control
Procedure, shortened: as §2

[9] = system: nutsedge, yellow (yellow nutsedge, Cyperus esculentus); experiment: Test C postemergence; settings: scale 0 to 100, 0 no effect, 100 complete control
Procedure, shortened: as §2

[10] = system: ragweed (common ragweed, Ambrosia elatior); experiment: Test C postemergence; settings: scale 0 to 100, 0 no effect, 100 complete control
Procedure, shortened: as §2

CN1C[C@H](c2ccc(C(F)(F)F)cc2)[C@@H](C(=O)Nc2cccc(F)c2F)C1=O [Compound 623, (3S,4S)—N-(2,3-difluorophenyl)-1-methyl-2-oxo-4-[4-(trifluoromethyl)phenyl]-3-pyrrolidinecarboxamide]
Plant response rating: Pigweed ([1]; 31 g ai/ha): 75
Plant response rating: Pigweed ([1]; 62 g ai/ha): 95
Plant response rating: Pigweed ([1]; 125 g ai/ha): 95
Plant response rating: Pigweed ([1]; 250 g ai/ha): 100
Plant response rating: Barley, Spring ([2]; 31 g ai/ha): 5
Plant response rating: Barley, Spring ([2]; 62 g ai/ha): 15
Plant response rating: Barley, Spring ([2]; 125 g ai/ha): 35
Plant response rating: Barley, Spring ([2]; 250 g ai/ha): 65
Plant response rating: Wheat, Winter ([3]; 31 g ai/ha): 5
Plant response rating: Wheat, Winter ([3]; 62 g ai/ha): 20
Plant response rating: Wheat, Winter ([3]; 125 g ai/ha): 20
Plant response rating: Wheat, Winter ([3]; 250 g ai/ha): 40
Plant response rating: Field Poppy ([4]; 31 g ai/ha): 80
Plant response rating: Field Poppy ([4]; 62 g ai/ha): 80
Plant response rating: Field Poppy ([4]; 125 g ai/ha): 85
Plant response rating: Field Poppy ([4]; 250 g ai/ha): 100
Plant response rating: Oilseed Rape ([5]; 31 g ai/ha): 15
Plant response rating: Oilseed Rape ([5]; 62 g ai/ha): 20
Plant response rating: Oilseed Rape ([5]; 125 g ai/ha): 25
Plant response rating: Oilseed Rape ([5]; 250 g ai/ha): 75
Plant response rating: Horseweed ([6]; 31 g ai/ha): 80
Plant response rating: Horseweed ([6]; 62 g ai/ha): 90
Plant response rating: Horseweed ([6]; 125 g ai/ha): 90
Plant response rating: Horseweed ([6]; 250 g ai/ha): 90

CN1C[C@H](c2ccc(F)c(F)c2)[C@@H](C(=O)Nc2ccccc2F)C1=O [Compound 596, (3S,4S)-4-(3,4-difluorophenyl)-N-(2-fluorophenyl)-1-methyl-2-oxo-3-pyrrolidinecarboxamide]
Plant response rating, Chickweed ([7]; 31 g ai/ha): 20
Plant response rating, Chickweed ([7]; 62 g ai/ha): 20
Plant response rating, Chickweed ([7]; 125 g ai/ha): 25
Plant response rating, Chickweed ([7]; 250 g ai/ha): 80
Plant response rating, Morningglory ([8]; 31 g ai/ha): 0
Plant response rating, Morningglory ([8]; 62 g ai/ha): 10
Plant response rating, Morningglory ([8]; 125 g ai/ha): 25
Plant response rating, Morningglory ([8]; 250 g ai/ha): 50
Plant response rating, Nutsedge, Yellow ([9]; 31 g ai/ha): 0
Plant response rating, Nutsedge, Yellow ([9]; 62 g ai/ha): 0
Plant response rating, Nutsedge, Yellow ([9]; 125 g ai/ha): 10
Plant response rating, Nutsedge, Yellow ([9]; 250 g ai/ha): 10
Plant response rating, Ragweed ([10]; 31 g ai/ha): 0
Plant response rating, Ragweed ([10]; 62 g ai/ha): 0
Plant response rating, Ragweed ([10]; 125 g ai/ha): 0
Plant response rating, Ragweed ([10]; 250 g ai/ha): 15
